We go through 13 molecules from patent US20210315893A1 (Galapagos NV, priority 2017, published 2021).

Molecules are shown by their SMILES.

Experiment [1] has as its target T1, human GPCR sphingosine 1-phosphate receptor 2 (Homo sapiens, UniProt O95136).
T1 construct: host or cells: CHO
The experiment in a line: S1PR2 antagonist Ca2+ flux assay. It counts as cell-based. Conditions: antagonist mode, CHO-S1PR2 cells, S1P at EC80, Ca2+ fluorescence; read-out: S1P2 EC50 (nM), S1P2 antagonist EC50. The method, boiled down: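 CHO cells stably expressing human S1PR2, serum-starved 1 h, Fluo8-loaded; compound-evoked Ca2+ fluorescence read 3 min (agonist mode), then after 15 min S1P at EC80 added and read 3 min (antagonist mode). Max/baseline fluorescence ratios normalised to vehicle and S1P EC100 or EC50 controls; EC50 derived.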

In experiment [2] the target is T2, human GPCR sphingosine 1-phosphate receptor 1 (Homo sapiens, UniProt P21453).
T2 construct: host or cells: CHO
The experiment in a line: S1PR1 selectivity Ca2+ flux assay (antagonist readout). In kind it is cell-based. The conditions noted are these: antagonist readout, CHO cells overexpressing human S1PR1 and Gq, S1P at EC80 (6 nM); read-out: S1P1 EC50 (nM), S1P1 antagonist EC50. Summed up: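 CHO cells stably overexpressing human S1PR1, starved 1 h in 0.1% FAF BSA medium, then Fluo 8 dye-loaded. Compound added, then after 15 min at 37 °C, S1P-evoked Ca2+ flux recorded. Maximal signal/background ratio normalized to controls as % inhibition; IC50 from four-parameter logistic fit.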

Experiment [3] deals with HFL-1 cells. The experiment in a line: IL8 assay in the presence of Human Serum Albumin. The conditions noted are these: HFL1, read-out: HSA IL8 EC50.
For experiment [4], the system named is HFL-1 cells. Kind of experiment: IL-8 production assay (S1P induced IL-8). In kind it is cell-based. The conditions noted are these: Homo sapiens, HFL1; S1P (1 μM) induced IL-8 in HFL-1 cells, starvation medium without HSA; read-out: IL8 EC50. The method, boiled down: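 HFL-1 human fetal lung fibroblasts were starved in F12K/1% FBS, then given compound for 1 h (10-point, 1/3 dilution, 30 μM top, 0.3% DMSO final). S1P was added at 1 μM final for 16–24 h at 37 °C, and secreted IL-8 in supernatant quantified by ELISA.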

Another experiment deals with T3, S1PR2 (Homo sapiens, UniProt O95136).
T3 construct: expressed in transfected cells
The experiment in a line: S1PR2 binding assay (competition with radioactively labeled S1P, SpA). The conditions noted are these: membranes from stable cell line over expressing S1PR2, SpA beads; read-out: S1P2 EC50 (nM), S1PR2 binding EC50. Summed up:
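Competition with [3H]S1P for membranes from a stable S1PR2-overexpressing cell line, 20 μg/well, captured on PVT-WGA SPA beads, in 20 mM Tris pH 7.5, 10 mM MgCl2, 100 mM NaCl, 0.4% fatty-acid-free BSA, 1 mM Na3VO4. 2 h at room temperature, then centrifugation and scintillation counting.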

Experiment [5] deals with T4, human GPCR sphingosine 1-phosphate receptor 5 (Homo sapiens, UniProt Q9H228).
T4 construct: host or cells: CHO
Kind of experiment: S1PR5 selectivity Ca2+ flux assay (antagonist readout). In kind it is cell-based. Conditions: CHO cells overexpressing human S1PR5 and Gq, agonist at EC80 (20 nM), read-out: S1P5 EC50 (nM), S1P5 antagonist EC50. The method, boiled down:
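CHO cells stably coexpressing human S1PR5 and Gq were serum-starved, Fluo 8-loaded and preincubated 15 min at 37° C with compound. They were then stimulated at EC80 with an S1PR5-specific agonist, and calcium fluorescence was recorded for 3 min. Peak/baseline ratios were normalized to controls and fitted to a four-parameter IC50 equation.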

T2 sequence (P21453 whole entry): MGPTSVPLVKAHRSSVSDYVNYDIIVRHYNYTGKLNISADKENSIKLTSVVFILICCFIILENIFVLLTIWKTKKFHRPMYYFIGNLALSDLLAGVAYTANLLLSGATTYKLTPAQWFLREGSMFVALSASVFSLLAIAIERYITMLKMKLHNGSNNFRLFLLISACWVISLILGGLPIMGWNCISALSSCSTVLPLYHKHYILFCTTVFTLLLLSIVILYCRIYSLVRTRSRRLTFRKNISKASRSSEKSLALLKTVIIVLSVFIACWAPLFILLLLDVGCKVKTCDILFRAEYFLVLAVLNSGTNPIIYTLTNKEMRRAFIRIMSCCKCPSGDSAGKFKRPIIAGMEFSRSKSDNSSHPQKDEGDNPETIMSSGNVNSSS
T4 sequence (Q9H228 whole entry): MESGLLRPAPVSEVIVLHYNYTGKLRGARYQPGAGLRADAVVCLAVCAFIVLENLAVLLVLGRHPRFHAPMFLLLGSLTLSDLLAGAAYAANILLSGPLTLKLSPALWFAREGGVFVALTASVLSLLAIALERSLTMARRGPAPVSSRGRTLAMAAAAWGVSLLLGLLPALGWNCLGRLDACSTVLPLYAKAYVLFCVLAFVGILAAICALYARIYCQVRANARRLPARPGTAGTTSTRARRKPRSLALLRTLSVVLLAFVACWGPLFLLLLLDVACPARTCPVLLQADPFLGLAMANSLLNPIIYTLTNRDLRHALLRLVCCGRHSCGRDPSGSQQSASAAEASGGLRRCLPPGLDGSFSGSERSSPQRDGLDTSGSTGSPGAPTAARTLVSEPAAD
T1 sequence (O95136 whole entry): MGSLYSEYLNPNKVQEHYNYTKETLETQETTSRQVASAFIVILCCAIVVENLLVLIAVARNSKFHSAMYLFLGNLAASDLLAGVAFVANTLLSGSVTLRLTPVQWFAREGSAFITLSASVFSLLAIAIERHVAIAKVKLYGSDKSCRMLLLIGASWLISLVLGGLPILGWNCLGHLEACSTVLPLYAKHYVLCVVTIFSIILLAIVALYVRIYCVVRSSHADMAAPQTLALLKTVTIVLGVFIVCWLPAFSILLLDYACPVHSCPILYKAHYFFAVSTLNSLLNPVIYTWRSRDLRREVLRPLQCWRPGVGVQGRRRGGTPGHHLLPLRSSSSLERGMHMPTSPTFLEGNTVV
T3 sequence (O95136 whole entry): as above

Regarding `N#Cc1cc2[nH]c(Cc3nn(CC(=O)N4CCC(O)C(F)(F)C4)c(=O)c4ccccc34)nc2cc1OCC(F)F` (stereo not drawn) [Compound 212], the EC50 in experiment [1] is 19.2 nM; in experiment [2] it was at least 19800 nM; with HFL-1 cells [3], 64 nM; with HFL-1 cells [4], 10.4 nM; at S1PR2 it was 65.6 nM; in experiment [5], 19800 nM.
For the molecule `N#Cc1cc2[nH]c(Cc3nn(CC(=O)N4CCC(O)(C5CC5)CC4)c(=O)c4ccccc34)nc2cc1OCC(F)F` [Compound 213, 2-[[3-[2-(4-cyclopropyl-4-hydroxy-1-piperidyl)-2-oxo-ethyl]-4-oxo-phthalazin-1-yl)methyl]-6-(2,2-difluoroethoxy)-3H-benzimidazole-5-carbonitrile], the EC50 in experiment [1] was 41.4 nM; in experiment [2], at least 19800 nM; with HFL-1 cells [3] it was 178 nM; with HFL-1 cells [4], 70.7 nM; at S1PR2, 159 nM; in experiment [5], 19800 nM.
With `N#Cc1cc2[nH]c(Cc3nn(CC(=O)N4CCC(O)(C5CC5)C4)c(=O)c4ccccc34)nc2cc1OCC(F)F` (stereo not drawn) [Compound 214, 2-[[3-[2-(3-cyclopropyl-3-hydroxy-pyrrolidin-1-yl)-2-oxo-ethyl]-4-oxo-phthalazin-1-yl]methyl]-6-(2,2-difluoroethoxy)-3H-benzimidazole-5-carbonitrile], the concentration for a half-maximal effect (EC50) in experiment [1] was 34.6 nM; in experiment [2], at least 19800 nM; with HFL-1 cells [3] it was 33.4 nM; with HFL-1 cells [4], 7.04 nM; at S1PR2 it was 124 nM; in experiment [5], 19800 nM.
In the case of `N#Cc1cc2[nH]c(Cc3nn(CC(=O)N4CCC(O)(C(F)(F)F)C4)c(=O)c4ccccc34)nc2cc1OCC(F)F` (stereo not drawn) [Compound 216, 6-(2,2-difluoroethoxy)-2-[[3-[2-[3-hydroxy-3-(trifluoromethyl)pyrrolidin-1-yl]-2-oxo-ethyl]-4-oxo-phthalazin-1-yl]methyl]-3H-benzimidazole-5-carbonitrile], the EC50 in experiment [1] was 13 nM; in experiment [2], at least 19800 nM; in the experiment on HFL-1 cells [3], 16 nM; in the experiment with HFL-1 cells [4] it was 12.2 nM; at S1PR2 it was 44.7 nM; in experiment [5] it was 19800 nM.
In the case of `O=C(Cc1nn(Cc2nc3cc(OCC4CC4)c(Br)cc3[nH]2)c2ccccc2c1=O)N1C[C@H](O)[C@@H](O)C1` [Compound 217, 1-[[6-bromo-5-(cyclopropylmethoxy)-1H-benzimidazol-2-yl]methyl]-3-[2-[(3S,4S)-3,4-dihydroxypyrrolidin-1-yl]-2-oxo-ethyl]cinnolin-4-one], the concentration for a half-maximal effect (EC50) in experiment [1] came out at 2.23 nM; in experiment [2] it was 698 nM; in the experiment with HFL-1 cells [3], 1.36 nM; in the experiment on HFL-1 cells [4], 0.04 nM; on S1PR2, 2.58 nM; in experiment [5], 19800 nM.
With `N#Cc1cc2[nH]c(Cc3nn(CC(=O)N4CCN(CC5CC5)CC4)c(=O)c4ccccc34)nc2cc1OCC(F)F` [Compound 218, 2-[[3-[2-[4-(cyclopropylmethyl)piperazin-1-yl]-2-oxo-ethyl]-4-oxo-phthalazin-1-yl]methyl]-6-(2,2-difluoroethoxy)-3H-benzimidazole-5-carbonitrile], the concentration giving a half-maximal response (EC50) in experiment [1] was 1410 nM; in experiment [2], at least 19800 nM; with HFL-1 cells [3], 15200 nM; in the experiment with HFL-1 cells [4], 151 nM; on S1PR2, 526 nM; in experiment [5], 19800 nM.
As for `CC1(C)CN(C(=O)Cn2nc(Cc3nc4cc(OCC(F)F)c(C#N)cc4[nH]3)c3ccccc3c2=O)CCO1` [Compound 227, 6-(2,2-difluoroethoxy)-2-[[3-[2-(2,2-dimethylmorpholin-4-yl)-2-oxo-ethyl]-4-oxo-phthalazin-1-yl]methyl]-3H-benzimidazole-5-carbonitrile], the concentration for a half-maximal effect (EC50) was 14.5 nM in experiment [1]; at least 19800 nM in experiment [2]; 84.2 nM in the experiment on HFL-1 cells [3]; 16.9 nM in the experiment with HFL-1 cells [4]; 82.1 nM at S1PR2; 19800 nM in experiment [5].
For the molecule `CC1(C)CCN(C(=O)Cn2nc(Cc3nc4cc(OCC(F)F)c(C#N)cc4[nH]3)c3ccccc3c2=O)CC1` [Compound 234, 6-(2,2-difluoroethoxy)-2-[[3-[2-(4,4-dimethyl-1-piperidyl)-2-oxo-ethyl]-4-oxo-phthalazin-1-yl]methyl]-3H-benzimidazole-5-carbonitrile], the EC50 in experiment [1] is 13 nM; in experiment [2], at least 19800 nM; in the experiment on HFL-1 cells [3] it was 378 nM; with HFL-1 cells [4], 34.2 nM; at S1PR2, 270 nM; in experiment [5] it was 19800 nM.
Turning to `CS(=O)(=O)NC(=O)Cn1nc(Cc2nc3cc(OCC4CC4)c(Cl)cc3[nH]2)c2ccccc2c1=O` [Compound 242, 2-[4-[[6-chloro-5-(cyclopropylmethoxy)-1H-benzimidazol-2-yl]methyl]-1-oxo-phthalazin-2-yl]-N-methylsulfonyl-acetamide], the 50% effective concentration (EC50) came out at 19.2 nM in experiment [1]; 560 nM in experiment [2]; 111 nM with HFL-1 cells [3]; 77.3 nM in the experiment on HFL-1 cells [4]; 299 nM at S1PR2; 19800 nM in experiment [5].
For `CS(=O)(=O)NC(=O)Cn1nc(Cn2cc3cc(OCC4CC4)c(Cl)cc3n2)c2ccccc2c1=O` [Compound 243, 2-[4-[[6-chloro-5-(cyclopropylmethoxy)indazol-2-yl]methyl]-1-oxo-phthalazin-2-yl]-N-methylsulfonyl-acetamide], the EC50 was 9 nM in experiment [1]; at least 19800 nM in experiment [2]; 2580 nM in the experiment with HFL-1 cells [3]; 764 nM in the experiment with HFL-1 cells [4]; 400 nM on S1PR2; 19800 nM in experiment [5].
As to `O=C(Cn1nc(Cn2cc3cc(OCC4CC4)c(Cl)cc3n2)c2ccccc2c1=O)NS(=O)(=O)C1CC1` [Compound 244, 2-[4-[[6-chloro-5-(cyclopropylmethoxy)indazol-2-yl]methyl]-1-oxo-phthalazin-2-yl]-N-cyclopropylsulfonyl-acetamide], the 50% effective concentration (EC50) in experiment [1] was 8.29 nM; in experiment [2] it was at least 19800 nM; in the experiment with HFL-1 cells [3] it was 808 nM; with HFL-1 cells [4] it was 21.3 nM; on S1PR2, 136 nM; in experiment [5], 19800 nM.
Regarding `N#Cc1cc2[nH]c(Cc3nn(CC(=O)O)c(=O)c4ccccc34)nc2cc1OCC1CC1` [compound 7, 2-[4-[[6-cyano-5-(cyclopropyl-methoxy)-1H-benzimidazol-2-yl]methyl]-1-oxo-phthalazin-2-yl]acetic acid], the EC50 in experiment [1] was 8.26 nM; in experiment [2], at least 19800 nM; in the experiment with HFL-1 cells [3] it was 11.3 nM; with HFL-1 cells [4] it was 3.67 nM; on S1PR2, 50.3 nM; in experiment [5], 19800 nM.
As for `N#Cc1cc2nn(Cc3nn(CC(=O)O)c(=O)c4ccccc34)cc2cc1OCC(F)F` [compound 8, 2-[4-[[6-cyano-5-(2,2-difluoro-ethoxy)indazol-2-yl]methyl]-1-oxo-phthalazin-2-yl]acetic acid], the EC50 in experiment [1] is 10700 nM; in experiment [2] it was at least 19800 nM; in the experiment on HFL-1 cells [3], 9950 nM; in the experiment on HFL-1 cells [4], 610 nM; at S1PR2, 2490 nM; in experiment [5], 19800 nM.
